# Reference: US12673041B2, “4-aminobut-2-enamide derivatives and salt thereof” (TAIHO PHARMACEUTICAL CO., LTD., priority 2019, dated 2026)
# Key:
# [1] = biological target: Gppcp-bound recombinant K-Ras4B G12C mutant protein (amino acids 1-169, C51S/C80L/C118S) (Homo sapiens, UniProt P01116, C118S/C51S/C80L/G12C); assay: KRASG12C binding assay (LC-MS compound binding rate); settings: test compound final concentration 0.5 μM, 25° C., 1 hour
# Method: As test compounds for the KRASG12C binding assay, the compounds obtained in the “Preparation of Compounds” section were used. Sample solutions each containing a test compound were prepared in the form of a 10 mM DMSO solution.
# Gppcp-bound recombinant K-Ras4B G12C mutant protein (amino acids 1-169, C51S/C80L/C118S, SEQ ID NO:1) was diluted with a buffer (1×TBS, 0.1 mM TCEP, 0.25 mM MgCl2, 50 μM Gppcp) to prepare a 50 nM protein solution. K-Ras4B is the major splicing variant of K-Ras. Amino acid sequence of residues 1 to 150 including the compounds' binding region of K-Ras4B is exactly same as that of K-Ras4A, the other splicing variant (Oncotarget. 2016 Jul. 19; 7(29): 46717-46733). A sample solution containing 10 mM test compound was diluted ten-fold with DMSO to make a 1 mM sample solution, and then diluted twenty-fold with DMSO to make a 50 μM sample solution. 1 μL of a 50 μM sample solution was added to 100 μL of a 50 nM protein solution to adjust the final concentration of a test compound to be 0.5 μM in the mixture. The mixtures were stored in an incubator at 25° C. for 1 hour, and 10 μL of a 1×TBS solution containing 2% formic acid was added to stop the reaction, followed by LC-MS measurement. LC-MS measurement was performed using Xevo G2-S Q-Tof manufactured by Waters, and reverse-phase chromatography was performed with a desalting column. A mass spectrum of positive ions was obtained by electrospray. For a mass spectrum, a spectrum of polyvalent ions was collectively converted to a molecular weight by using OpenLynx software by the MaxEnt technique, and a compound binding rate was calculated from the ratio of the signal intensity of a peak that corresponds to the molecular weight of the protein to the signal intensity of a peak that corresponds to the molecular weight of the protein conjugated with the compound.
# The binding assay of the test compounds was conducted at a final concentration of 0.5 μM. A binding rate of 80% or more is rated “A”, a binding rate of 60% or more and less than 80% is rated “B”, a binding rate of 40% or more and less than 60% is rated “C”, a binding rate of 20% or more and less than 40% is rated “D”, and a binding rate of less than 20% is rated “E”. N.D.=not determined. Binding rate % is the ratio of KRAS signal intensity at the molecular weight of one molecule adduct to the sum of all the KRAS signal intensity (unbound form and adducts) in mass spectrum.
# Thus, binding rate 100% means that only the one molecule adduct was observed without any unbound KRAS.
# [2] = biological target: T1, GMPPNP-bound KRAS G12C protein and cRAF RAS-binding domain (cRAF-RBD) (Homo sapiens, UniProt P01116, G12C); assay: Inhibitory activity on interaction between KRAS G12C and cRAF (Alpha technology); type: biochemical; settings: GMPPNP-bound KRAS G12C incubated with compound at 25° C. for 1 hour, then cRAF-RBD, Alpha signal; read-out: IC50
# T1 construct: made in house; host or cells: E. coli
# Method: Interaction between recombinant K-Ras4B G12C mutant protein (amino acids 1-169, SEQ ID NO:2) and cRAF RAS-binding domain (cRAF-RBD, amino acids 50-132, Jena Biosciences GmbH) was measured using Alpha technology (PerkinElmer Inc.).
# Recombinant KRAS G12C protein with an N-terminal His-tag was expressed in E. coli and purified by affinity chromatography. To prepare GTP-bound form and GDP-bound form of KRAS G12C protein, 50 μM KRAS G12C protein was incubated with 1 mM GMPPNP (Guanosine-5′-[(β,γ)-imido]triphosphate, Tetralithium salt) (Jena Bioscience GmbH) and 1 mM GDP, respectively, in a loading buffer (20 mM Tris-HCl (pH 7.5), 50 mM NaCl, 1 mM DTT and 2.5 mM EDTA) for 1 hour on ice. After the incubation, MgCl2 was added to a final concentration of 10 mM, followed by incubation at room temperature for 30 minutes. The mixture was allowed to pass through a NAP-5 column to remove free nucleotides and purified, and the resultant nucleotide-bound KRAS G12C protein was used for compound evaluation.
# For the measurement of the inhibitory activity of compounds on interaction between KRAS G12C and cRAF-RBD, GMPPNP-bound KRAS G12C protein was incubated with various concentrations of compound in a reaction buffer (20 mM Tris-HCl (pH 7.5), 100 mM NaCl, 1 mM MgCl2, 1 mM TCEP, 0.1% Tween 20) at 25° C. for 1 hour. After the incubation, recombinant cRAF-RBD and Alpha detection reagents were added and incubated at room temperature for 1.5 hours for binding. Interaction 5 of KRAS G12C and cRAF-RBD was monitored by measuring Alpha signal. Inhibition % was calculated using the signal from the reaction without test compound (DMSO control) as 0% inhibition and the signal from the reaction using GDP-bound KRAS G12C in place of GMPPNP-bound KRAS G12C as 100% inhibition. IC50 values were calculated from dose titration curve using curve fitting by XLfit software (IDBS).
Compound,binding rate [1],IC50 [2]
"CO[C@H]1CC[C@H](NC/C=C/C(=O)Nc2ccc(C(=O)c3ccc4c(-c5cc6ncn(C)c6cc5C(F)(F)F)cccn34)cc2)CC1 [Example 39, (E)-4-(((1r,4r)-4-methoxycyclohexyl)amino)-N-(4-(8-(1-methyl-6-(trifluoromethyl)-1H-benzo[d]imidazol-5-yl)indolizine-3-carbonyl)phenyl)but-2-enamide]",A (A binding rate of 80% or more is rated “A”),0.3 µM
"COc1ccccc1-c1cccn2c(C(=O)c3ccc(NC(=O)/C=C/CN[C@H]4CC[C@H](OC)CC4)c(C#N)c3)ccc12 [Example 40, (E)-N-(2-cyano-4-(8-(2-methoxyphenyl)indolizine-3-carbonyl)phenyl)-4-(((1r,4r)-4-methoxycyclohexyl)amino)but-2-enamide]",B (a binding rate of 60% or more and less than 80% is rated “B”),0.2 µM
"Cn1cnc2cc(-c3cccn4c(C(=O)c5ccc(NC(=O)/C=C/[C@H]6CCCN6)c(C#N)c5)ccc34)c(C(F)(F)F)cc21 [Example 42, (R,E)-N-(2-cyano-4-(8-(1-methyl-6-(trifluoromethyl)-1H-benzo[d]imidazol-5-yl)indolizine-3-carbonyl)phenyl)-3-(pyrrolidin-2-yl)acrylamide]",D (a binding rate of 20% or more and less than 40% is rated “D”),0.36 µM
"COc1cccc(F)c1-c1cccn2c(C(=O)c3ccc(NC(=O)/C=C/CN[C@H]4CC[C@H](OC)CC4)c(C#N)c3)ccc12 [Example 43, (E)-N-(2-cyano-4-(8-(2-fluoro-6-methoxyphenyl)indolizine-3-carbonyl)phenyl)-4-(((1r,4r)-4-methoxycyclohexyl)amino)but-2-enamide]",A (A binding rate of 80% or more is rated “A”),0.17 µM
"CO[C@H]1CC[C@H](NC/C=C/C(=O)Nc2ccc(C(=O)c3ccc4c(-c5ccccc5Cl)cccn34)cc2C#N)CC1 [Example 45, (E)-N-(4-(8-(2-chlorophenyl)indolizine-3-carbonyl)-2-cyanophenyl)-4-(((1r,4r)-4-methoxycyclohexyl)amino)but-2-enamide]",B (a binding rate of 60% or more and less than 80% is rated “B”),0.32 µM
"CO[C@H]1CC[C@H](NC/C=C/C(=O)Nc2ccc(C(=O)c3ccc4c(-c5c(O)cccc5F)cccn34)cc2C#N)CC1 [Example 46, (E)-N-(2-cyano-4-(8-(2-fluoro-6-hydroxyphenyl)indolizine-3-carbonyl)phenyl)-4-(((1r,4r)-4-methoxycyclohexyl)amino)but-2-enamide]",A (A binding rate of 80% or more is rated “A”),0.17 µM
"CO[C@H]1CC[C@H](NC/C=C/C(=O)Nc2ccc(C(=O)c3c[nH]c4c(-c5cc6ncn(C)c6cc5C(F)(F)F)cc(Cl)cc34)cc2C#N)CC1 [Example 47, (E)-N-(4-(5-chloro-7-(1-methyl-6-(trifluoromethyl)-1H-benzo[d]imidazol-5-yl)-1H-indole-3-carbonyl)-2-cyanophenyl)-4-(((1r,4r)-4-methoxycyclohexyl)amino)but-2-enamide]",A (A binding rate of 80% or more is rated “A”),0.56 µM
"CO[C@H]1CC[C@H](NC/C=C/C(=O)NC2CCN(C(=O)c3ccc4c(-c5cc6ncn(C)c6cc5C)cccn34)CC2)CC1 [Example 48, (2E)-N-{1-[8-(1,6-dimethyl-1H-1,3-benzodiazol-5-yl)indolizine-3-carbonyl]piperidin-4-yl}-4-{[trans-4-methoxycyclohexyl]amino}but-2-enamide]",E (a binding rate of less than 20% is rated “E”),> 6.7 µM
"Cc1cc(C(=O)c2ccc3c(-c4cc5ncn(C)c5cc4C(F)(F)F)cccn23)cc(C#N)c1NC(=O)/C=C/CNC(C)(C)C [Example 50, (2E)-4-(tert-Butylamino)-N-(2-cyano-6-methyl-4-{8-[1-methyl-6-(trifluoromethyl)-1H-1,3-benzodiazol-5-yl]indolizine-3-carbonyl}phenyl)but-2-enamide]",E (a binding rate of less than 20% is rated “E”),1.2 µM
"Cn1cc2c(Cl)c(-c3cccn4c(C(=O)c5ccc(NC(=O)/C=C/CNC(C)(C)C)c(C#N)c5)ccc34)ccc2n1 [Example 52, (2E)-4-(tert-Butylamino)-N-{4-[8-(4-chloro-2-methyl-2H-indazol-5-yl)indolizine-3-carbonyl]-2-cyanophenyl}but-2-enamide]",B (a binding rate of 60% or more and less than 80% is rated “B”),0.26 µM
"Cc1ccc2c(cnn2C)c1-c1cccn2c(C(=O)c3ccc(NC(=O)/C=C/CNC(C)(C)C)c(C#N)c3)ccc12 [Example 53, (2E)-4-(tert-Butylamino)-N-{2-cyano-4-[8-(1,5-dimethyl-1H-indazol-4-yl)indolizine-3-carbonyl]phenyl}but-2-enamide]",A (A binding rate of 80% or more is rated “A”),0.15 µM
"Cc1cc2c(cnn2C)cc1-c1cccn2c(C(=O)c3ccc(NC(=O)/C=C/CNC(C)(C)C)c(C#N)c3)ccc12 [Example 54, (2E)-4-(tert-Butylamino)-N-{2-cyano-4-[8-(1,6-dimethyl-1H-indazol-5-yl)indolizine-3-carbonyl]phenyl}but-2-enamide]",A (A binding rate of 80% or more is rated “A”),0.18 µM
"CO[C@H]1CC[C@H](NC/C=C/C(=O)Nc2ccc(C(=O)c3ncc4c(-c5cc6ncn(C)c6cc5C)cccn34)cc2C#N)CC1 [Example 57, (E)-N-(2-cyano-4-(8-(1,6-dimethyl-1H-benzo[d]imidazol-5-yl)imidazo[1,5-a]pyridine-3-carbonyl)phenyl)-4-(((1r,4r)-4-methoxycyclohexyl)amino)but-2-enamide]",C (a binding rate of 40% or more and less than 60% is rated “C”),0.16 µM
"CO[C@H]1CC[C@H](NC/C=C/C(=O)Nc2ccc(C(=O)c3nn(C)c4c(-c5cc6ncn(C)c6cc5C)cccc34)cc2C#N)CC1 [Example 58, (E)-N-(2-cyano-4-(7-(1,6-dimethyl-1H-benzo[d]imidazol-5-yl)-1-methyl-1H-indazole-3-carbonyl)phenyl)-4-(((1r,4r)-4-methoxycyclohexyl)amino)but-2-enamide]",B (a binding rate of 60% or more and less than 80% is rated “B”),0.24 µM
"C=C(C)c1c(-c2cccn3c(C(=O)c4ccc(NC(=O)/C=C/CNC(C)(C)C)c(C#N)c4)ccc23)c(C)cc2c1ncn2C [Example 61, (E)-4-(tert-butylamino)-N-(2-cyano-4-(8-(1,6-dimethyl-4-(prop-1-en-2-yl)-1H-benzo[d]imidazol-5-yl)indolizine-3-carbonyl)phenyl)but-2-enamide]",A (A binding rate of 80% or more is rated “A”),0.23 µM
